10 compounds from US20050101595A1, “N-containing cycloalkyl-substituted amino-thiazole derivatives and pharmaceutical compositions for inhibiting cell proliferation and methods for their use” (PFIZER INC., priority 2003, published 2005) can be followed below.

Where two headings read alike, the source gives them in different places.

The target of assay [1] is human CDK4 and genetically truncated (1-264) cyclin D3 (Homo sapiens, UniProt P11802). In words: Inhibition of CDK4/Cyclin D Retinoblastoma Kinase Activity. The assay is classed as biochemical. The following applies: for Ki: apparent Ki, CDK4/truncated cyclin D3, Rb fragment substrate, 25 μM ATP. How it is done:
Cyclin-dependent kinase activity was measured by quantifying the enzyme-catalyzed, time-dependent incorporation of radioactive phosphate from [^32P]ATP or [^33P]ATP into a protein substrate. Unless noted otherwise, assays were performed in 96-well plates in a total volume of 50 μL, in the presence of 10 mM HEPES (N-[2-hydroxyethyl]piperazine-N′-[2-ethanesulfonic acid]) (pH 7.4), 10 mM MgCl2, 25 μM adenosine triphosphate (ATP), 1 mg/mL ovalbumin, 5 μg/mL leupeptin, 1 mM dithiothreitol, 10 mM β-glycerophosphate, 0.1 mM sodium vanadate, 1 mM sodium fluoride, 2.5 mM ethylene glycol-bis(β-aminoethyl ether)-N,N,N′N′-tetraacetic acid (EGTA), 2% (v/v) dimethylsulfoxide, and 0.03-0.4 μCi [^32/33P]ATP per reaction. Reactions were initiated with enzyme, incubated at 30° C., and terminated after 20 minutes by the addition of ethylenediaminetetraacetic acid (EDTA) to 250 mM. The phosphorylated substrate was then captured on a nitrocellulose or phosphocellulose membrane using a 96-well filtration manifold, and unincorporated radioactivity was removed by repeated washing with 0.85% phosphoric acid. Radioactivity was quantified by exposing the dried membranes to a phosphorimager.
Inhibition was measured relative to control wells that contained all reaction components including 2% (v/v) DMSO but no compound, after subtraction of background radioactivity measured in the absence of enzyme. Apparent Ki values of discrete compounds were measured by assaying enzyme activity in the presence of different inhibitor compound concentrations and subtracting the background radioactivity measured in the absence of enzyme. The kinetic parameters (kcat, Km for ATP) were measured for each enzyme under the usual assay conditions by determining the dependence of initial rates on ATP concentration. Inhibition data were fit to an equation for competitive inhibition using Kaleidagraph (Synergy Software), or were fit to an equation for competitive tight-binding inhibition using the software KineTic (BioKin, Ltd.).
Inhibition of CDK4/Cyclin D Retinoblastoma Kinase Activity:
A complex of human CDK4 and genetically truncated (1-264) cyclin D3 was purified using traditional biochemical chromatographic techniques from insect cells that had been co-infected with the corresponding baculovirus expression vectors (see e.g., Meijer and Kim, “Chemical Inhibitors of Cyclin-Dependent Kinases,” Methods in Enzymol,. vol. 283 (1997), pp. 113-128.). The enzyme complex (5 nM) was assayed with 0.3-0.5 μg of purified recombinant retinoblastoma protein fragment (Rb) as a substrate. The engineered Rb fragment (residues 386-928 of the native retinoblastoma protein; 62.3 kDa) contains the majority of the phosphorylation sites found in the native 106-kDa protein, as well as a tag of six histidine residues for ease of purification. Phosphorylated Rb substrate was captured by microfiltration on a nitrocellulose membrane and quantified using a phosphorimager as described above. For measurement of tight-binding inhibitors, the assay duration was extended to 60 minutes, during which the time-dependence of product formation was linear and initial rate conditions were met.

The target in the next assay is CDK2/Cyclin A (Homo sapiens, UniProt P24941). Description: Inhibition of CDK2/Cyclin A Retinoblastoma Kinase Activity. The assay is classed as biochemical. The conditions noted are these: for CDK2 % Inhibition At 0.03 μM: Table 2; for Ki: apparent Ki, CDK2/proteolyzed cyclin A, Rb fragment substrate, 25 μM ATP. An outline of the steps:
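CDK2 (10 or 19 nM), insect-cell expressed, gel-filtration purified with truncated cyclin A; Rb fragment substrate; 25 μM ATP; 10 mM HEPES pH 7.4, 10 mM MgCl2; 30° C, 60 or 75 min; EDTA stop; phosphocellulose/nitrocellulose capture, phosphorimager. % inhibition vs DMSO control, no-enzyme background subtracted.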

The next assay concerns HCT-116 cell line. In words: Inhibition of cell growth, tetrazolium salt (MTT) assay. The assay is classed as cell-based. The following applies: for HCT-116 % Inhibition at 0.25 μM: 0.25 μM compound; for IC50: Homo sapiens, HCT-116, 120 h, MTT, three to five days, read-out: HCT-116 IC50. An outline of the steps:
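Growth inhibition is scored relative to cells receiving only 0.5% (v/v) DMSO. Plated cells rest 4 h, then take compound for three to five days at 37° C; MTT reduction to formazan is read at 540 nm.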

For orientation: IC50 means the point on the concentration scale where inhibition reaches its midpoint.

Chain of human CDK4 and genetically truncated (1-264) cyclin D3 (P11802 whole entry, the tested form may be a part): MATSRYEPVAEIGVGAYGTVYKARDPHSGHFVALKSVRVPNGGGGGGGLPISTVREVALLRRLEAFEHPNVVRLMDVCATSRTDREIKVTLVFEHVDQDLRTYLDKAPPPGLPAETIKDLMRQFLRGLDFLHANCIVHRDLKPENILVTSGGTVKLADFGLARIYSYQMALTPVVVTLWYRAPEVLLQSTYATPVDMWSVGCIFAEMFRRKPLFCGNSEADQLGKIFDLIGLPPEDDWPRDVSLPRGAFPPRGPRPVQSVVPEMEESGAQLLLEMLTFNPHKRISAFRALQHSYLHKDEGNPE
Chain of human CDK4 and genetically truncated (1-264) cyclin D3 (P30281 1-264 partner): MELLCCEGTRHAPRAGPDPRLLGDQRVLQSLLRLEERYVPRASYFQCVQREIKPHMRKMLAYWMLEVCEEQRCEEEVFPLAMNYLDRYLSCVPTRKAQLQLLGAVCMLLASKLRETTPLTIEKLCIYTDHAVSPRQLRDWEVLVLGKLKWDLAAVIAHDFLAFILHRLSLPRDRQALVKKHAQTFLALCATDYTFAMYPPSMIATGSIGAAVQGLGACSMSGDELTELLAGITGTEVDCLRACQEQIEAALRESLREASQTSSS

Consider `[N-]=[N+]=C1C=C(S(=O)(=O)N2CCC(Nc3nc(N)c(C(=O)c4c(F)cccc4F)s3)CC2)c2ccccc2C1=O` [Example P83], for which the “CDK4 % Inhibition at 0.03 μM” value in assay [1] (0.03 μM compound, Table 3) is 25%. At CDK2/Cyclin A (0.03 μM compound, Table 3), the “CDK2 % Inhibition at 0.03 μM” value was −11%. In addition, the “HCT-116 % Inhibition at 0.1 μM” value with HCT-116 cell line (0.1 μM compound, HCT-116, Table 3) stood at 10%. Also, the “HCT-116 % Inhibition at 0.25 μM” value with HCT-116 cell line (HCT-116, Table 3) is 26%.
`CC1CC1C(=O)N1CCC(Nc2nc(N)c(C(=O)c3c(F)cccc3F)s2)CC1` (stereo not drawn) [Example R93]: the “CDK4 % Inhibition at 0.03 μM” value in assay [1] (at 0.03 μM) is on record as −1%. For the same compound, the “CDK2 % Inhibition at 0.03 μM” value on CDK2/Cyclin A (at 0.03 μM) is on record as −10%. Besides, the “HCT-116 % Inhibition at 0.1 μM” value in the assay on HCT-116 cell line (HCT-116 cells, at 0.1 μM) came to 0%. Moreover, the “HCT-116 5 Inhibition at 0.25 μM” value in the assay on HCT-116 cell line (HCT-116 cells) is given as 42.
With `Nc1nc(NC2CCN(C(=O)Nc3ccc(Cl)c(C(F)(F)F)c3)CC2)sc1C(=O)c1c(F)cccc1F` [Example O51], the “CDK4 % Inhibition at 0.03 μM” value in assay [1] (0.03 μM compound, Table 2) is 7%. Further, the “CDK2 % Inhibition At 0.03 μM” value at CDK2/Cyclin A (0.03 μM compound) is reported as 30%. Moreover, the “HCT-116 % Inhibition at 0.25 μM” value in the assay on HCT-116 cell line (HCT-116, Table 2) was determined as 11%.
Turning to `COc1ccc(S(=O)(=O)N2CCC(Nc3nc(N)c(C(=O)c4c(F)cccc4F)s3)CC2)cc1OC` [Example F8, 1-{4-Amino-2-[1-(3,4-dimethoxy-benzenesulfonyl)-piperidin-4-ylamino]-thiazol-5-yl}-1-(2,6-difluoro-phenyl)-methanone], the values for the Ki (in assay [1]; on CDK2/Cyclin A) were 3 nM and under 1 nM, respectively. Besides, the IC50 is 160 nM with HCT-116 cell line (first HCT-116 column (c4)) and 290 nM in the assay on HCT-116 cell line (second HCT-116 column (c5)).
For the compound `Nc1nc(NC2CCN(C(=O)C3(c4ccc(Cl)cc4)CC3)CC2)sc1C(=O)c1c(F)cccc1F` [Example R91], in assay [1] (at 0.03 μM), the “CDK4 % Inhibition at 0.03 μM” value turned out to be 14%. For the same compound, the “CDK2 % Inhibition at 0.03 μM” value on CDK2/Cyclin A (at 0.03 μM) is listed as −1%. Moreover, the “HCT-116 % Inhibition at 0.1 μM” value in the assay with HCT-116 cell line (HCT-116 cells, at 0.1 μM) is given as 2%. Besides, the “HCT-116 5 Inhibition at 0.25 μM” value with HCT-116 cell line (HCT-116 cells) worked out at 41.
With `Nc1nc(NC2CCN(C(=O)Oc3ccccc3)CC2)sc1C(=O)c1c(F)cccc1F` [Example Q4], in assay [1] (0.03 μM compound, Table 4), the “CDK4 % Inhibition at 0.03 μM” value came to 78%. Besides, the “CDK2 % Inhibition at 0.03 μM” value at CDK2/Cyclin A (0.03 μM compound, Table 4) is on record as 59%. Besides, in the assay with HCT-116 cell line (0.1 μM compound, HCT-116, Table 4), the “HCT-116 % Inhibition at 0.1 μM” value was determined as 0%. In the assay on HCT-116 cell line (HCT-116, Table 4), the “HCT-116 % Inhibition at 0.25 μM” value stood at 41%.
Consider `Nc1nc(NC2CCN(C(=O)c3cccc(Cl)c3Cl)CC2)sc1C(=O)c1c(F)cccc1F` [Example R106], for which the “CDK4 % Inhibition at 0.03 μM” value in assay [1] (at 0.03 μM) turned out to be 19%. Also, on CDK2/Cyclin A (at 0.03 μM), the “CDK2 % Inhibition at 0.03 μM” value amounted to 2%. The “HCT-116 % Inhibition at 0.1 μM” value in the assay with HCT-116 cell line (HCT-116 cells, at 0.1 μM) is 2%. In the assay with HCT-116 cell line (HCT-116 cells), the “HCT-116 5 Inhibition at 0.25 μM” value was determined as 72.
As for `COC(=O)c1ccccc1NC(=O)N1CCC(Nc2nc(N)c(C(=O)c3c(F)cccc3F)s2)CC1` [Example O39], the “CDK4 % Inhibition at 0.03 μM” value in assay [1] (0.03 μM compound, Table 2) worked out at 13%. For the same compound, on CDK2/Cyclin A (0.03 μM compound), the “CDK2 % Inhibition At 0.03 μM” value is reported as 32%. In addition, the “HCT-116 % Inhibition at 0.25 μM” value in the assay on HCT-116 cell line (HCT-116, Table 2) came out at 27%.
For `Nc1nc(NC2CCN(C(=O)c3ccc(Oc4cc(Cl)cc(Cl)c4)o3)CC2)sc1C(=O)c1c(F)cccc1F` [Example R69], the “CDK4 % Inhibition at 0.03 μM” value in assay [1] (at 0.03 μM) was found to be 35%. For the same compound, on CDK2/Cyclin A (at 0.03 μM), the “CDK2 % Inhibition at 0.03 μM” value came to 29%. For the same compound, in the assay with HCT-116 cell line (HCT-116 cells, at 0.1 μM), the “HCT-116 % Inhibition at 0.1 μM” value was 0%. Also, the “HCT-116 5 Inhibition at 0.25 μM” value in the assay on HCT-116 cell line (HCT-116 cells) amounted to 41.
Take `Nc1nc(NC2CCN(S(=O)(=O)c3cncc(Cl)n3)CC2)sc1C(=O)c1c(F)cccc1F` [Example F49, {4-Amino-2-[1-(6-chloro-pyrazine-2-sulfonyl)-piperidin-4-ylamino]-thiazol-5-yl}-(2,6-difluoro-phenyl)-methanone]: the figures for the Ki (in assay [1]; at CDK2/Cyclin A) were 1.1 nM and 0.46 nM, respectively.
